Results taken from ChEMBL document CHEMBL1141323, “Iriomoteolides-1b and -1c, 20-membered macrolides from a marine dinoflagellate Amphidinium species” (J Nat Prod, 2007).
In brackets after ≈: the same amount, converted by molar mass.

Experiments:
[1] = Cytotoxicity against human DG75 cells; type: cell-based; settings: DG-75
[2] = tested on: Raji (Homo sapiens); test: Cytotoxicity against EBV-infected Raji cells; settings: human gammaherpesvirus 4, Raji

Row | Structure (SMILES) | IC50 [1] [ng/mL] | IC50 [2] [ng/mL]
1 | C/C1=C/C(=O)[C@](C)(O)/C=C/C[C@H](C)[C@@H](C[C@H](C)[C@H](C)O)OC(=O)/C=C(/C)[C@@H](C)[C@@H](O)/C=C/C[C@H](O)C1 | 900 (≈ 1780 nM) | 
2 | C=C1C[C@@H]2C/C=C/[C@H](O)[C@H](C)/C(C)=C\C(=O)O[C@H](CCC(C)C(C)O)[C@@H](C)C/C=C/[C@@](C)(O)[C@](O)(C1)O2 (stereo not given in full) | 2 (≈ 3.84 nM) | 4 (≈ 7.68 nM)
3 | C=C1C[C@@H]2C/C=C/[C@H](O)[C@H](C)/C(C)=C\C(=O)O[C@H](C[C@H](C)[C@H](C)O)[C@@H](C)C/C=C/[C@@](C)(O)[C@](O)(C1)O2 | 2 (≈ 3.95 nM) | 4 (≈ 7.89 nM)
